Numbered stars: 1 amine (or outer) side, 2 acyl side, 3 side chain; on linkers, the order of the positions; unused ones are H or OH. Square brackets hold non-standard residues; d marks the D form. Peptide text beside a SMILES is read from it. * marks the point of attachment. Trp(βS-Me,7-OMe) = COc1cccc2c([C@H](C)[C@H](N)C(=O)O)c[nH]c12; dPro(trans-4-NMe3+) = C[N+](C)(C)[C@@H]1CN[C@@H](C(=O)O)C1; Trp(1-CH2COOH) = N[C@@H](Cc1cn(CC(=O)O)c2ccccc12)C(=O)O; Phe(4-SO2NH2) = N[C@@H](Cc1ccc(S(N)(=O)=O)cc1)C(=O)O; Ala(indazol-1-yl) = N[C@@H](Cn1ncc2ccccc21)C(=O)O; Trp(7-CN) = N#Cc1cccc2c(C[C@H](N)C(=O)O)c[nH]c12; Trp(7-Cl) = N[C@@H](Cc1c[nH]c2c(Cl)cccc12)C(=O)O; Ala(pyrimidin-5-yl) = N[C@@H](Cc1cncnc1)C(=O)O; Phe(4-CONH2) = NC(=O)c1ccc(C[C@H](N)C(=O)O)cc1; Phe(4-COOH) = N[C@@H](Cc1ccc(C(=O)O)cc1)C(=O)O; X30 = O=C([C@@H](N[*:1])[C@H](O)c1ccncc1)[*:2]; 4Pal(3S-Me) = C[C@@H](c1ccncc1)[C@H](N)C(=O)O; X47 = NC[C@H]1C[C@H](C(=O)[*:2])N([*:1])C1; Pip(5R-OH) = O=C(O)[C@@H]1CC[C@@H](O)CN1; Nle(6-COOH) = N[C@@H](CCCCC(=O)O)C(=O)O; X1 = O=C([C@@H]1CC[C@H](N[*:1])C1)[*:2]; 4Pal = N[C@@H](Cc1ccncc1)C(=O)O; dHyp = O=C(O)[C@H]1C[C@H](O)CN1; Ahp(2) = CCCCC[C@H](N)C(=O)O; αMeS = C[C@](N)(CO)C(=O)O; Carboxymethyl = O=C(O)C*; Nle = CCCC[C@H](N)C(=O)O; Sar = CNCC(=O)O

In test [1] the target is T1, TNFα-induced NF-κB signal transduction pathway (TNFR1 signaling) in THP-1 cells (Homo sapiens, UniProt P19438).
T1 sequence (P19438 30-455): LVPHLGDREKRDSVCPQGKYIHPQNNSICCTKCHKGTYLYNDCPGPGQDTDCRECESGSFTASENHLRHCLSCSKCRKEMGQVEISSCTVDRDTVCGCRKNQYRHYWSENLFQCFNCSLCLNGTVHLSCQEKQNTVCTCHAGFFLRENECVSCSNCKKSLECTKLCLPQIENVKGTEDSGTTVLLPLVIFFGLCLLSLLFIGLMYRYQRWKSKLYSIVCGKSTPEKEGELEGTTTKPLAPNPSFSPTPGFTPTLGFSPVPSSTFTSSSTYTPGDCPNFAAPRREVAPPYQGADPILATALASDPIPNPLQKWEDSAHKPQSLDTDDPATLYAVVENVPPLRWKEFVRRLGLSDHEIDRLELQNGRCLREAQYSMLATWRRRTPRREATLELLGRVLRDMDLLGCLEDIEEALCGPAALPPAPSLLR
Description: THP-1 Lucia NF-κB reporter cell assay, inhibition of TNFα-induced NF-κB signaling. The class given is cell-based. To be noted: THP-1 NF-κB Lucia reporter cells, 10 ng/mL TNFα, 16-18 h, secreted luciferase; read-out: THP-1 IC50. The gist of the method: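 Read-out: secreted Lucia luciferase luminescence (QUANTI-Luc) from supernatant after 16-18 h, 37 °C, 10 ng/mL rhTNFα. Peptide pretreatment 1 h at 37 °C; 20,000 cells/well, selection antibiotics omitted. IC50 via 4-parameter logistic model against min/max controls.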

Test [2] has as its target T2, human soluble TNFR1 (sTNFR1) (Homo sapiens, UniProt P19438).
T2 construct: made in house; host or cells: Sf21 (baculovirus)
T2 sequence (P19438 with tags, fused parts or gaps): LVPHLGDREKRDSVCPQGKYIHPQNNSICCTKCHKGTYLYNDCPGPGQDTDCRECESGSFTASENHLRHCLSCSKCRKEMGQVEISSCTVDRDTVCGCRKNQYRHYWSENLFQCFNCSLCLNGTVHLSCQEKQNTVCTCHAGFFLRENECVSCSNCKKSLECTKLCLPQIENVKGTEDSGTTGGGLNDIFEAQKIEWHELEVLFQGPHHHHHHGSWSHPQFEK
The test is described as follows: Human sTNFR1-peptide displacement assay (LanthaScreen Eu TR-FRET binding assay). The gist of the method:
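Readout is the 665/615 nm TR-FRET ratio (Eu anti-His donor, streptavidin-Alexa647 acceptor), normalized to DMSO and saturating displacer, fit by Morrison-based five-parameter logistic for Kd^app. His-tagged sTNFR1 (1-211) prebound to 100 nM biotinylated peptide SEQ ID NO.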

What is called IC50 is the concentration that inhibits the measured activity by half. As usually defined, the Kd is the free concentration of one partner at which half of the binding sites on the other are occupied at equilibrium, for simple one-to-one binding. A lower Kd goes with a tighter complex. For the compound `CCCC[C@@H]1NC(=O)[C@@H]2CC[C@@H](C2)NC(=O)[C@H]([C@@H](C)c2c[nH]c3c(OC)cccc23)NC(=O)CN(C)C(=O)[C@H](Cc2ccc(C(=O)O)cc2)NC(=O)[C@H](Cc2ccc(C(N)=O)cc2)NC(=O)[C@](C)(CO)NC(=O)[C@H](Cc2c[nH]c3c(Cl)cccc23)NC(=O)[C@H](Cc2ccc(C(=O)O)cc2)NC(=O)[C@H](CC(N)=O)NC(=O)[C@H]2C[C@H](CN)CN2C(=O)[C@H](Cc2c[nH]c3ccccc23)NC(=O)[C@@H]2CC[C@@H](O)CN2C(=O)[C@H](Cc2ccncc2)NC1=O` [SEQ ID NO. 15] (cyclo([4Pal][Pip(5R-OH)]W[X47]N[Phe(4-COOH)][Trp(7-Cl)][αMeS][Phe(4-CONH2)][Phe(4-COOH)][Sar][Trp(βS-Me,7-OMe)][X1][Nle])), the half-inhibitory concentration (IC50) in test [1] amounted to 500 pM. This compound also gave a Kd in test [2] of 100 pM.

Take `CCCC[C@@H]1NC(=O)[C@@H]2CC[C@@H](C2)NC(=O)[C@H]([C@@H](C)c2c[nH]c3c(OC)cccc23)NC(=O)CN(C)C(=O)[C@H](Cc2ccc(OCC(=O)O)cc2)NC(=O)[C@H](Cc2ccc(S(N)(=O)=O)cc2)NC(=O)[C@](C)(CO)NC(=O)[C@H](Cc2c[nH]c3c(C#N)cccc23)NC(=O)[C@H](Cc2ccc(OCC(=O)O)cc2)NC(=O)[C@H](CC(N)=O)NC(=O)[C@H]2C[C@H]([N+](C)(C)C)CN2C(=O)[C@H](Cn2ncc3ccccc32)NC(=O)[C@@H]2CC[C@@H](O)CN2C(=O)[C@H](Cc2cncnc2)NC1=O` [SEQ ID NO. 43] (cyclo(NY(Carboxymethyl)[Trp(7-CN)][αMeS][Phe(4-SO2NH2)]Y(Carboxymethyl)[Sar][Trp(βS-Me,7-OMe)][X1][Nle][Ala(pyrimidin-5-yl)][Pip(5R-OH)][Ala(indazol-1-yl)][dPro(trans-4-NMe3+)])): the IC50 in test [1] was determined as 600 pM. Further, in test [2], the Kd was 90 pM.

Regarding `CCCC[C@@H]1NC(=O)[C@@H]2CC[C@@H](C2)NC(=O)[C@H]([C@@H](C)c2c[nH]c3c(OC)cccc23)NC(=O)CN(C)C(=O)[C@H](Cc2ccc(C(N)=O)cc2)NC(=O)[C@H](Cc2ccc(C(N)=O)cc2)NC(=O)[C@](C)(CO)NC(=O)[C@H](Cc2c[nH]c3c(C#N)cccc23)NC(=O)[C@H]([C@H](O)c2ccncc2)NC(=O)[C@H](CC(N)=O)NC(=O)[C@H]2C[C@H](OCC(=O)O)CN2C(=O)[C@H](Cc2cn(CC(=O)O)c3ccccc23)NC(=O)[C@@H]2CC[C@@H](O)CN2C(=O)[C@H](Cc2ccncc2)NC1=O` [SEQ ID NO. 129] (cyclo([4Pal][Pip(5R-OH)][Trp(1-CH2COOH)][dHyp](Carboxymethyl)N[X30][Trp(7-CN)][αMeS][Phe(4-CONH2)][Phe(4-CONH2)][Sar][Trp(βS-Me,7-OMe)][X1][Nle])), the IC50 in test [1] amounted to 3100 pM. This compound yielded a Kd in test [2] of 480 pM.

On to `CCCCC[C@@H]1NC(=O)[C@@H]2CC[C@@H](C2)NC(=O)[C@H]([C@@H](C)c2c[nH]c3c(OC)cccc23)NC(=O)CN(C)C(=O)[C@H](Cc2ccc(C(N)=O)cc2)NC(=O)[C@H](Cc2ccc(C(N)=O)cc2)NC(=O)[C@](C)(CO)NC(=O)[C@H](Cc2c[nH]c3c(C#N)cccc23)NC(=O)[C@H](Cc2ccc(C(=O)O)cc2)NC(=O)[C@H](CC(N)=O)NC(=O)[C@H]2C[C@H](O)CN2C(=O)[C@H](Cc2c[nH]c3ccccc23)NC(=O)[C@H](CCCCC(=O)O)NC(=O)[C@H]([C@@H](C)c2ccncc2)NC1=O` [SEQ ID NO. 176] (cyclo([Ahp(2)][4Pal(3S-Me)][Nle(6-COOH)]W[dHyp]N[Phe(4-COOH)][Trp(7-CN)][αMeS][Phe(4-CONH2)][Phe(4-CONH2)][Sar][Trp(βS-Me,7-OMe)][X1])), for which the IC50 in test [1] amounted to 1000 pM. The same compound gave a Kd in test [2] of 220 pM.
